Experimental findings from PubChem BioAssay (NCI) are described below.

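Dose response: 5 concentrations. Exposure: 48 h. Format: 96-well plates. Endpoint: linear interpolation; highest concentration if not reached. GI50 is the concentration that inhibits growth by half. TGI is the concentration that stops growth completely.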

Some test systems named below: SN12C renal; HOP-92 NSCLC; PC-3 prostate; MOLT-4 leukemia; HS 578T breast; UACC-62 melanoma; T-47D breast; CCRF-CEM leukemia; UACC-257 melanoma; A549 NSCLC.
Holding throughout (experiment): inhibition of tumour cell growth, NCI panel, 48 h

Take `O=C1/C(=C\c2ccc(Cl)cc2)CN(C(=O)c2ccccc2)C/C1=C\c1ccc(Cl)cc1`: the GI50 in the test on SN12C renal was 2.16 µM; with HOP-92 NSCLC it was 7.18 µM; with PC-3 prostate, 2.57 µM; in the test with MOLT-4 leukemia, 4.25 µM; with HS 578T breast, 2.92 µM; with UACC-62 melanoma it was 1.86 µM. Moreover, the GI50 in the test on T-47D breast is 4330 nM; in the test on CCRF-CEM leukemia it was 2500 nM; in the test with UACC-257 melanoma, 5.51 µM; in the test on A549 NSCLC it was 3.15 µM. Also, the TGI in the test on SN12C renal was 5.4 µM; with HOP-92 NSCLC, 55.9 µM; in the test with PC-3 prostate, 10.1 µM; in the test with MOLT-4 leukemia, more than 100 µM; with HS 578T breast, 9.17 µM; in the test with UACC-62 melanoma, 4.55 µM. The TGI in the test with T-47D breast was more than 100 µM; in the test with CCRF-CEM leukemia, more than 70.2 µM; in the test on UACC-257 melanoma, 33.9 µM; in the test with A549 NSCLC, more than 45.6 µM.
On to `O=P1(O)c2ccccc2CSCc2ccccc21`, for which the TGI in the test with SN12C renal, in the test on HOP-92 NSCLC, in the test on PC-3 prostate, in the test on MOLT-4 leukemia, in the test on HS 578T breast and with UACC-62 melanoma was more than 100 µM throughout. Also, the TGI in the test on T-47D breast, in the test on CCRF-CEM leukemia, in the test on UACC-257 melanoma and in the test on A549 NSCLC was more than 100 µM in each case.
For the compound `O=C(CSc1nc2ccc([N+](=O)[O-])cc2[nH]1)Nc1ccc([N+](=O)[O-])cc1`, the GI50 with SN12C renal is 2.26 µM; in the test with HOP-92 NSCLC, 0.293 µM; in the test on PC-3 prostate it was 2.38 µM; with MOLT-4 leukemia it was 2.81 µM; with HS 578T breast it was 2.31 µM; in the test with UACC-62 melanoma it was 1.36 µM. For the same compound, the GI50 with T-47D breast was 1590 nM; with CCRF-CEM leukemia, 2480 nM; with UACC-257 melanoma, 1.75 µM; in the test on A549 NSCLC, 2.94 µM. The TGI was 10.6 µM with SN12C renal; 2.22 µM with HOP-92 NSCLC; 12.5 µM in the test with PC-3 prostate; more than 32.3 µM in the test on MOLT-4 leukemia; 10.2 µM in the test on HS 578T breast; 7.52 µM in the test on UACC-62 melanoma. In addition, the TGI with T-47D breast was 12.9 µM; in the test with CCRF-CEM leukemia, more than 100 µM; in the test with UACC-257 melanoma, 6.71 µM; in the test on A549 NSCLC, 14.2 µM.
Regarding `COc1ccc(/C=C/C(=O)c2ccc(B(O)O)cc2)cc1O`, the GI50 in the test with SN12C renal was 20.1 µM; with HOP-92 NSCLC, 3.46 µM; in the test with PC-3 prostate it was 15 µM; in the test with MOLT-4 leukemia it was 10.9 µM; with HS 578T breast it was 12.6 µM; with UACC-62 melanoma, 14.3 µM. Also, the GI50 in the test on T-47D breast was 13500 nM; in the test with CCRF-CEM leukemia it was 7230 nM; with UACC-257 melanoma it was 21.6 µM; in the test on A549 NSCLC it was 14.5 µM. The TGI was more than 77.7 µM with SN12C renal; 29.8 µM in the test on HOP-92 NSCLC; 50.1 µM in the test with PC-3 prostate; more than 100 µM with MOLT-4 leukemia; more than 100 µM with HS 578T breast; 33.2 µM in the test with UACC-62 melanoma. Further, the TGI in the test on T-47D breast is 50.9 µM; in the test with CCRF-CEM leukemia, 44.4 µM; with UACC-257 melanoma it was 59.3 µM; in the test on A549 NSCLC, more than 76.7 µM.
Consider `O=C(NCCNc1nccc(-c2c(-c3ccc(F)cc3)nc3sccn23)n1)Nc1cccc(C(F)(F)F)c1`, for which the GI50 in the test on SN12C renal was 6.42 µM; in the test with HOP-92 NSCLC it was 4.59 µM; in the test with PC-3 prostate, 3.93 µM; in the test on MOLT-4 leukemia, 6.3 µM; in the test with HS 578T breast it was 8.17 µM; in the test with UACC-62 melanoma it was 4.75 µM. Moreover, the GI50 with T-47D breast was 2150 nM; in the test on CCRF-CEM leukemia, 3140 nM; in the test on UACC-257 melanoma it was 10.6 µM; in the test on A549 NSCLC it was 5.51 µM. In addition, the TGI with SN12C renal is 22.7 µM; with HOP-92 NSCLC, 33.3 µM; in the test with PC-3 prostate, 42.3 µM; in the test on MOLT-4 leukemia, more than 100 µM; in the test on HS 578T breast, 65.5 µM; in the test with UACC-62 melanoma, 17 µM. For the same compound, the TGI with T-47D breast is 8.48 µM; in the test with CCRF-CEM leukemia, 30.1 µM; with UACC-257 melanoma, 26.1 µM; in the test on A549 NSCLC, 24.5 µM.
For the compound `COc1ccc(-c2nc(Nc3ccc(F)cc3)nc(Nc3ccc4c(c3)nc(C)n4Cc3ccccc3)n2)cc1`, the GI50 is 6.18 µM with SN12C renal; 2.59 µM in the test on HOP-92 NSCLC; 3.11 µM with PC-3 prostate; 3.44 µM with MOLT-4 leukemia; 6.63 µM in the test with HS 578T breast; 6.66 µM in the test on UACC-62 melanoma. For the same compound, the GI50 with T-47D breast is 2420 nM; in the test with CCRF-CEM leukemia, 2880 nM; in the test with UACC-257 melanoma it was 7.17 µM; in the test on A549 NSCLC, 3.59 µM. For the same compound, the TGI in the test with SN12C renal, with HOP-92 NSCLC, in the test on PC-3 prostate, in the test on MOLT-4 leukemia, in the test with HS 578T breast and with UACC-62 melanoma was more than 100 µM in each case. The TGI in the test with T-47D breast was 44.2 µM; with CCRF-CEM leukemia it was more than 100 µM; in the test with UACC-257 melanoma it was more than 100 µM; in the test on A549 NSCLC it was more than 100 µM.
